Assay results reported in the supplement of paper PMC10599287.

How the values were obtained:
[1] = compound: CCNC(=O)C#Cc1ccc2c(C(=Nc3ccc(CN(C)C)cc3)c3ccccc3)c(O)[nH]c2c1; assay: absolute IC70 (antiproliferative, propidium iodide); higher = less potent; conditions: exposure time: 4 days
Procedure: (§1)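 Modified propidium iodide survival/proliferation assay in 294 human tumor cell lines (2D monolayer for solid tumors, suspension for hematologic lines) after 4 days of continuous exposure to 10 concentrations in half-log steps from 0.001 to 30 µM. Absolute IC70 was fitted by four-parameter nonlinear regression of T/C × 100 (%) values; 30 µM is the top dose.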

GDC-0623 = compound: O=C(NOCCO)c1ccc2cncn2c1Nc1ccc(I)cc1F [GDC-0623]; assay: as above; conditions: exposure time: 4 days
Procedure: as §1

Test System	absolute IC70 [1]	absolute IC70 (GDC-0623)
22RV1	616 nM	> 30000 nM
786-O	1170 nM	> 30000 nM
A172	252 nM	1590 nM
A204	614 nM	> 30000 nM
A427	283 nM	> 30000 nM
A498	4340 nM	> 30000 nM
A2780	546 nM	24400 nM
A-253	> 30000 nM	> 30000 nM
A-431	30 nM	563 nM
ACHN	765 nM	> 30000 nM
BT-474	4060 nM	> 30000 nM
BT-549	1780 nM	> 30000 nM
BXF_1036	115 nM	8 nM
BXF_1228	3230 nM	> 30000 nM
BXF_1352	45 nM	11 nM
BXF_5637	20 nM	359 nM
CAKI-1	2360 nM	> 30000 nM
CAL-27	250 nM	14 nM
CAL-33	346 nM	517 nM
CAL-51	61 nM	> 30000 nM
CCRF-CEM	13 nM	> 30000 nM
CCRF-CEM-VCR	73 nM	> 30000 nM
CNXF_498	5620 nM	> 30000 nM
COLO-205	14 nM	17 nM

Test System	absolute IC70 [1]	absolute IC70 (GDC-0623)
COLO-320	2110 nM	> 30000 nM
COLO-678	3000 nM	> 30000 nM
COLO-741	524 nM	38.9 nM
CXF_94	554 nM	167 nM
CXF_260	324 nM	194 nM
CXF_280	1550 nM	> 30000 nM
CXF_1103	11 nM	427 nM
Caco-2	4760 nM	> 30000 nM
Calu-1	3440 nM	> 30000 nM
DAUDI	10 nM	> 30000 nM
DETROIT562	3090 nM	> 30000 nM
DIFI	91 nM	522 nM
DMS-273	5120 nM	> 30000 nM
DND-39	72 nM	> 30000 nM
DU-145	569 nM	1240 nM
DU-4475	9 nM	4 nM
DoTc2-4510	260 nM	> 30000 nM
EFE-184	3950 nM	> 30000 nM
EFO-21	2140 nM	> 30000 nM
EFO-27	724 nM	> 30000 nM
EGI-1	693 nM	> 30000 nM
EJM	2820 nM	> 30000 nM
EM-2	277 nM	192 nM
EVSA-T	2240 nM	> 30000 nM

Test System	absolute IC70 [1]	absolute IC70 (GDC-0623)
FADU	2260 nM	> 30000 nM
FU97	6600 nM	> 30000 nM
GP5d	80.2 nM	> 30000 nM
GXA_3011	97 nM	> 30000 nM
GXA_3013	3280 nM	> 30000 nM
GXA_3023	69 nM	1440 nM
GXA_3067	583 nM	265 nM
GXA_3080	114 nM	117 nM
GXF_251	944 nM	3340 nM
GXF_1172	510 nM	1270 nM
GXF_23132	20600 nM	> 30000 nM
H69AR	688 nM	> 30000 nM
H-MESO-1	5670 nM	> 30000 nM
HCC33	2050 nM	> 30000 nM
HCC1937	475 nM	> 30000 nM
HCC2998	896 nM	257 nM
HCT116	51 nM	84 nM
HCT-15	1440 nM	> 30000 nM
HEC-1-A	1580 nM	> 30000 nM
HH	1370 nM	> 30000 nM
HL-60	27 nM	6 nM
HNXF_1853	641 nM	451 nM
HNXF_1859	116 nM	117 nM
HPAC	120 nM	> 30000 nM

Test System	absolute IC70 [1]	absolute IC70 (GDC-0623)
HPAF-II	285 nM	79 nM
HT-29	392 nM	87 nM
HT-115	14.4 nM	57.6 nM
HT-1080	710 nM	279 nM
HUP-T3	291 nM	44 nM
HUT-78	72 nM	> 30000 nM
Hep-G2	55 nM	16500 nM
Hs 729	8020 nM	> 30000 nM
IGROV-1	1870 nM	> 30000 nM
IM95	12200 nM	> 30000 nM
IM-9	7 nM	15 nM
JHH-6	1140 nM	> 30000 nM
JIMT-1	1900 nM	> 30000 nM
JURKAT	2330 nM	> 30000 nM
JURL-MK1	149 nM	11 nM
K-562	2820 nM	> 30000 nM
KCL-22	250 nM	> 30000 nM
KG-1	33 nM	25100 nM
KLE	5420 nM	> 30000 nM
KM12	386 nM	15100 nM
KM20L2	186 nM	51.8 nM
KM-H2	2770 nM	> 30000 nM
KU-19-19	56 nM	22 nM
KYSE-70	1040 nM	> 30000 nM

Test System	absolute IC70 [1]	absolute IC70 (GDC-0623)
KYSE-150	2820 nM	> 30000 nM
KYSE-180	1000 nM	> 30000 nM
KYSE-520	525 nM	158 nM
L-363	692 nM	> 30000 nM
LEXFAL_2665	223 nM	> 30000 nM
LEXFAM_2531	26 nM	> 30000 nM
LIM2405	31.6 nM	5.96 nM
LIM2551	7.49 nM	3.68 nM
LIXFC_575	654 nM	3010 nM
LN-229	281 nM	102 nM
LOU-NH91	2140 nM	> 30000 nM
LOVO	3680 nM	> 30000 nM
LP-1	2160 nM	> 30000 nM
LS174T	40.4 nM	72.3 nM
LXFA_289	1790 nM	> 30000 nM
LXFA_526	739 nM	1320 nM
LXFA_586	106 nM	> 30000 nM
LXFA_623	960 nM	1010 nM
LXFA_629	750 nM	> 30000 nM
LXFA_677	269 nM	168 nM
LXFA_737	225 nM	> 30000 nM
LXFA_923	24400 nM	> 30000 nM
LXFA_983	202 nM	18500 nM
LXFA_1647	248 nM	221 nM

Test System	absolute IC70 [1]	absolute IC70 (GDC-0623)
LXFE_66	3910 nM	> 30000 nM
LXFL_529	329 nM	233 nM
LXFL_1072	481 nM	16200 nM
LXFL_1121	743 nM	> 30000 nM
LXFL_1674	1050 nM	> 30000 nM
M059K	1150 nM	> 30000 nM
MAXF_401	28 nM	730 nM
MCF7	281 nM	> 30000 nM
MCF 10A	31 nM	48 nM
MDA-MB-231	120 nM	78 nM
MDA-MB-453	2480 nM	> 30000 nM
MDA-MB-468	347 nM	2240 nM
MDST8	55.5 nM	6.01 nM
MEC-1	34 nM	> 30000 nM
MEG-01	20 nM	8 nM
MEXF_276	38 nM	8 nM
MEXF_394	42 nM	4 nM
MEXF_462	25 nM	7170 nM
MEXF_520	99 nM	5400 nM
MEXF_535	99 nM	5 nM
MEXF_622	227 nM	40 nM
MEXF_1341	482 nM	26 nM
MEXF_1539	39 nM	3 nM
